From PubChem BioAssay (NCI)
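Interpolation was linear, between the two tested concentrations surrounding the appropriate level; five concentrations were tested over 48 hours in 96-well plates. TGI: total growth inhibition.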

Experiments:
Experiment in all cases: NCI tumour cell line growth inhibition, 48 h
MDA-MB-435 = test system: MDA-MB-435
U251 CNS = test system: U251 CNS
UACC-257 melanoma = test system: UACC-257 melanoma
RXF 393 renal = test system: RXF 393 renal
HOP-62 NSCLC = test system: HOP-62 NSCLC
CAKI-1 renal = test system: CAKI-1 renal
K-562 leukemia = test system: K-562 leukemia
NCI/ADR-RES ovarian = test system: NCI/ADR-RES ovarian
IGROV1 ovarian = test system: IGROV1 ovarian
MOLT-4 leukemia = test system: MOLT-4 leukemia
TK-10 renal = test system: TK-10 renal
NCI-H522 lung = test system: NCI-H522 lung
NCI-H226 lung = test system: NCI-H226 lung
SF-539 CNS = test system: SF-539 CNS
DU-145 prostate = test system: DU-145 prostate
KM12 colon = test system: KM12 colon
OVCAR-8 ovarian = test system: OVCAR-8 ovarian
A549 NSCLC = test system: A549 NSCLC
SF-295 CNS = test system: SF-295 CNS
CCRF-CEM leukemia = test system: CCRF-CEM leukemia
UACC-62 melanoma = test system: UACC-62 melanoma
HCT-15 colon = test system: HCT-15 colon
BT-549 breast = test system: BT-549 breast
SK-OV-3 ovarian = test system: SK-OV-3 ovarian
NCI-H460 lung = test system: NCI-H460 lung
LOX IMVI melanoma = test system: LOX IMVI melanoma
HT29 colon = test system: HT29 colon
MALME-3M melanoma = test system: MALME-3M melanoma
M14 melanoma = test system: M14 melanoma
HCT-116 colon = test system: HCT-116 colon
SK-MEL-28 melanoma = test system: SK-MEL-28 melanoma
SW-620 colon = test system: SW-620 colon
SN12C renal = test system: SN12C renal
ACHN renal = test system: ACHN renal
HS 578T breast = test system: HS 578T breast
SK-MEL-5 melanoma = test system: SK-MEL-5 melanoma
HOP-92 NSCLC = test system: HOP-92 NSCLC
SK-MEL-2 melanoma = test system: SK-MEL-2 melanoma
HL-60(TB) leukemia = test system: HL-60(TB) leukemia
OVCAR-3 ovarian = test system: OVCAR-3 ovarian
OVCAR-4 ovarian = test system: OVCAR-4 ovarian
RPMI-8226 leukemia = test system: RPMI-8226 leukemia
OVCAR-5 ovarian = test system: OVCAR-5 ovarian
T-47D breast = test system: T-47D breast
COLO 205 colon = test system: COLO 205 colon
SNB-19 CNS = test system: SNB-19 CNS
MCF7 breast = test system: MCF7 breast
NCI-H23 lung = test system: NCI-H23 lung
PC-3 prostate = test system: PC-3 prostate
MDA-MB-231 breast = test system: MDA-MB-231 breast
SNB-75 CNS = test system: SNB-75 CNS
UO-31 renal = test system: UO-31 renal
EKVX NSCLC = test system: EKVX NSCLC
MDA-N = test system: MDA-N
SF-268 CNS = test system: SF-268 CNS

SMILES: O=C1/C(=C/c2ccc(Cl)cc2)N=C(c2ccccc2)N1/N=C/c1ccccc1O
- TGI (MDA-MB-435): > 100 µM
- TGI (U251 CNS): 18.6 µM
- TGI (UACC-257 melanoma): > 100 µM
- TGI (RXF 393 renal): 29.5 µM
- TGI (HOP-62 NSCLC): 5.21 µM
- TGI (CAKI-1 renal): 22.3 µM
- TGI (K-562 leukemia): 31 µM
- TGI (NCI/ADR-RES ovarian): 97.6 µM
- TGI (IGROV1 ovarian): 26.4 µM
- TGI (MOLT-4 leukemia): 38.9 µM
- TGI (TK-10 renal): 12.6 µM
- TGI (NCI-H522 lung): 35.6 µM
- TGI (NCI-H226 lung): 42.1 µM
- TGI (SF-539 CNS): 26.6 µM
- TGI (DU-145 prostate): > 100 µM
- TGI (KM12 colon): 33.3 µM
- TGI (OVCAR-8 ovarian): 34.6 µM
- TGI (A549 NSCLC): 81.6 µM
- TGI (SF-295 CNS): 29.7 µM
- TGI (CCRF-CEM leukemia): 7.73 µM
- TGI (UACC-62 melanoma): 30.3 µM
- TGI (HCT-15 colon): > 100 µM
- TGI (BT-549 breast): 39.6 µM
- TGI (SK-OV-3 ovarian): 22.4 µM
- TGI (NCI-H460 lung): 79.2 µM
- TGI (LOX IMVI melanoma): 31.4 µM
- TGI (HT29 colon): > 100 µM
- TGI (MALME-3M melanoma): 18.7 µM
- TGI (M14 melanoma): 19.1 µM
- TGI (HCT-116 colon): 15.2 µM
- TGI (SK-MEL-28 melanoma): 62.9 µM
- TGI (SW-620 colon): > 100 µM
- TGI (SN12C renal): > 100 µM
- TGI (ACHN renal): 21.2 µM
- TGI (HS 578T breast): 92.8 µM
- TGI (SK-MEL-5 melanoma): > 100 µM
- TGI (HOP-92 NSCLC): 32.9 µM
- TGI (SK-MEL-2 melanoma): 46.3 µM
- TGI (HL-60(TB) leukemia): > 100 µM
- TGI (OVCAR-3 ovarian): 36.3 µM
- TGI (OVCAR-4 ovarian): 19.9 µM
- TGI (RPMI-8226 leukemia): 24.8 µM
- TGI (OVCAR-5 ovarian): 34.8 µM
- TGI (T-47D breast): 30.7 µM
- TGI (COLO 205 colon): > 100 µM
- TGI (SNB-19 CNS): > 100 µM
- TGI (MCF7 breast): > 100 µM
- TGI (NCI-H23 lung): > 100 µM
- TGI (PC-3 prostate): 28 µM
- TGI (MDA-MB-231 breast): 63.3 µM
- TGI (SNB-75 CNS): 31 µM
- TGI (UO-31 renal): 43.4 µM
- TGI (EKVX NSCLC): 21.3 µM
- TGI (MDA-N): > 100 µM
- TGI (SF-268 CNS): 47.1 µM
